{
  "source": "patent US6617321B2",
  "about": "“2-methyl-thieno-benzodiazepine formulation” (Eli Lilly and Company, priority 1997, dated 2003)",
  "assay": "Solubility of olanzapine pamoate salts as a function of pH",
  "format": "physicochemical",
  "settings": "particularly in the range of pH 4 to 8",
  "data": [
    {"smiles": "Cc1cc2c(s1)Nc1ccccc1N=C2N1CCN(C)CC1.O=C(O)c1cc2ccccc2c(Cc2c(O)c(C(=O)O)cc3ccccc23)c1O", "note": "[olanzapine pamoate, 2-methyl-4-(4-methyl-1-piperazinyl)-10H-thieno[2,3-b][1,5]benzodiazepine pamoate]", "values": [
      {"measurement": "solubility, dependence on pH", "value": "somewhat independent of pH"}
    ]}
  ]
}
